For `CC(C)C(=O)Nc1ccc([N+](=O)[O-])c(C(F)(F)F)c1`, the solubility (mole fraction) (in 1,4-dioxane, 283.15 K) was 0.108, the solubility (mole fraction) (in 1,4-dioxane, 288.15 K) was 0.127 and the solubility (mole fraction) (in 1,4-dioxane, 293.15 K) was 0.151. It also gave a solubility (mole fraction) (in 1,4-dioxane, 298.15 K) of 0.177, a solubility (mole fraction) (in 1,4-dioxane, 303.15 K) of 0.203 and a solubility (mole fraction) (in 1,4-dioxane, 308.15 K) of 0.231. It also gave a solubility (mole fraction) (in 1,4-dioxane, 313.15 K) of 0.262, a solubility (mole fraction) (in 1,4-dioxane, 318.15 K) of 0.299 and a solubility (mole fraction) (in 1,4-dioxane, 323.15 K) of 0.348. For the same compound, the solubility (mole fraction) (in THF, 278.15 K) was 0.259, the solubility (mole fraction) (in THF, 283.15 K) was 0.276 and the solubility (mole fraction) (in THF, 288.15 K) was 0.297. The solubility (mole fraction) (in THF, 293.15 K) was 0.321, the solubility (mole fraction) (in THF, 298.15 K) was 0.348 and the solubility (mole fraction) (in THF, 303.15 K) was 0.376. For the same compound, the solubility (mole fraction) (in THF, 308.15 K) was 0.405, the solubility (mole fraction) (in THF, 313.15 K) was 0.436 and the solubility (mole fraction) (in THF, 318.15 K) was 0.469. It also gave a solubility (mole fraction) (in THF, 323.15 K) of 0.502, a solubility (mole fraction) (in acetone, 278.15 K) of 0.186 and a solubility (mole fraction) (in acetone, 283.15 K) of 0.201. It also gave a solubility (mole fraction) (in acetone, 288.15 K) of 0.228, a solubility (mole fraction) (in acetone, 293.15 K) of 0.258 and a solubility (mole fraction) (in acetone, 298.15 K) of 0.291. For the same compound, the solubility (mole fraction) (in acetone, 303.15 K) was 0.327, the solubility (mole fraction) (in acetone, 308.15 K) was 0.366 and the solubility (mole fraction) (in acetone, 313.15 K) was 0.407. For the same compound, the solubility (mole fraction) (in acetone, 318.15 K) was 0.45, the solubility (mole fraction) (in acetone, 323.15 K) was 0.49 and the solubility (mole fraction) (in acetonitrile, 278.15 K) was 0.0566. For the same compound, the solubility (mole fraction) (in acetonitrile, 283.15 K) was 0.0711, the solubility (mole fraction) (in acetonitrile, 288.15 K) was 0.0902 and the solubility (mole fraction) (in acetonitrile, 293.15 K) was 0.119. For the same compound, the solubility (mole fraction) (in acetonitrile, 298.15 K) was 0.157, the solubility (mole fraction) (in acetonitrile, 303.15 K) was 0.197 and the solubility (mole fraction) (in acetonitrile, 308.15 K) was 0.246. It also gave a solubility (mole fraction) (in acetonitrile, 313.15 K) of 0.296, a solubility (mole fraction) (in acetonitrile, 318.15 K) of 0.355 and a solubility (mole fraction) (in acetonitrile, 323.15 K) of 0.427. For the same compound, the solubility (mole fraction) (in ethanol, 278.15 K) was 0.0503, the solubility (mole fraction) (in ethanol, 283.15 K) was 0.0556 and the solubility (mole fraction) (in ethanol, 288.15 K) was 0.063. For the same compound, the solubility (mole fraction) (in ethanol, 293.15 K) was 0.0709, the solubility (mole fraction) (in ethanol, 298.15 K) was 0.0797 and the solubility (mole fraction) (in ethanol, 303.15 K) was 0.0908. For the same compound, the solubility (mole fraction) (in ethanol, 308.15 K) was 0.102, the solubility (mole fraction) (in ethanol, 313.15 K) was 0.117 and the solubility (mole fraction) (in ethanol, 318.15 K) was 0.133. For the same compound, the solubility (mole fraction) (in ethanol, 323.15 K) was 0.154, the solubility (mole fraction) (in ethyl acetate, 278.15 K) was 0.161 and the solubility (mole fraction) (in ethyl acetate, 283.15 K) was 0.178. For the same compound, the solubility (mole fraction) (in ethyl acetate, 288.15 K) was 0.191, the solubility (mole fraction) (in ethyl acetate, 293.15 K) was 0.206 and the solubility (mole fraction) (in ethyl acetate, 298.15 K) was 0.227. The solubility (mole fraction) (in ethyl acetate, 303.15 K) was 0.246, the solubility (mole fraction) (in ethyl acetate, 308.15 K) was 0.269 and the solubility (mole fraction) (in ethyl acetate, 313.15 K) was 0.29. The solubility (mole fraction) (in ethyl acetate, 318.15 K) was 0.321, the solubility (mole fraction) (in ethyl acetate, 323.15 K) was 0.351 and the solubility (mole fraction) (in isobutanol, 278.15 K) was 0.0307. The solubility (mole fraction) (in isobutanol, 283.15 K) was 0.0381, the solubility (mole fraction) (in isobutanol, 288.15 K) was 0.0487 and the solubility (mole fraction) (in isobutanol, 293.15 K) was 0.0632. The solubility (mole fraction) (in isobutanol, 298.15 K) was 0.0776, the solubility (mole fraction) (in isobutanol, 303.15 K) was 0.0965 and the solubility (mole fraction) (in isobutanol, 308.15 K) was 0.118. For the same compound, the solubility (mole fraction) (in isobutanol, 313.15 K) was 0.141, the solubility (mole fraction) (in isobutanol, 318.15 K) was 0.171 and the solubility (mole fraction) (in isobutanol, 323.15 K) was 0.207. The solubility (mole fraction) (in isopropanol, 278.15 K) was 0.0539, the solubility (mole fraction) (in isopropanol, 283.15 K) was 0.0609 and the solubility (mole fraction) (in isopropanol, 288.15 K) was 0.0692. The solubility (mole fraction) (in isopropanol, 293.15 K) was 0.0799, the solubility (mole fraction) (in isopropanol, 298.15 K) was 0.0918 and the solubility (mole fraction) (in isopropanol, 303.15 K) was 0.105. For the same compound, the solubility (mole fraction) (in isopropanol, 308.15 K) was 0.121, the solubility (mole fraction) (in isopropanol, 313.15 K) was 0.139 and the solubility (mole fraction) (in isopropanol, 318.15 K) was 0.161. The solubility (mole fraction) (in isopropanol, 323.15 K) was 0.182, the solubility (mole fraction) (in methanol, 278.15 K) was 0.0401 and the solubility (mole fraction) (in methanol, 283.15 K) was 0.047. It also gave a solubility (mole fraction) (in methanol, 288.15 K) of 0.0555, a solubility (mole fraction) (in methanol, 293.15 K) of 0.0641 and a solubility (mole fraction) (in methanol, 298.15 K) of 0.0757. The solubility (mole fraction) (in methanol, 303.15 K) was 0.0878, the solubility (mole fraction) (in methanol, 308.15 K) was 0.103 and the solubility (mole fraction) (in methanol, 313.15 K) was 0.12. The solubility (mole fraction) (in methanol, 318.15 K) was 0.142, the solubility (mole fraction) (in methanol, 323.15 K) was 0.166 and the solubility (mole fraction) (in methyl acetate, 278.15 K) was 0.141. The solubility (mole fraction) (in methyl acetate, 283.15 K) was 0.157, the solubility (mole fraction) (in methyl acetate, 288.15 K) was 0.179 and the solubility (mole fraction) (in methyl acetate, 293.15 K) was 0.208. The solubility (mole fraction) (in methyl acetate, 298.15 K) was 0.24, the solubility (mole fraction) (in methyl acetate, 303.15 K) was 0.275 and the solubility (mole fraction) (in methyl acetate, 308.15 K) was 0.312. The solubility (mole fraction) (in methyl acetate, 313.15 K) was 0.35, the solubility (mole fraction) (in methyl acetate, 318.15 K) was 0.396 and the solubility (mole fraction) (in methyl acetate, 323.15 K) was 0.447. The solubility (mole fraction) (in n-butanol, 278.15 K) was 0.049, the solubility (mole fraction) (in n-butanol, 283.15 K) was 0.0549 and the solubility (mole fraction) (in n-butanol, 288.15 K) was 0.0622. The solubility (mole fraction) (in n-butanol, 293.15 K) was 0.0709, the solubility (mole fraction) (in n-butanol, 298.15 K) was 0.0797 and the solubility (mole fraction) (in n-butanol, 303.15 K) was 0.0904. The solubility (mole fraction) (in n-butanol, 308.15 K) was 0.103, the solubility (mole fraction) (in n-butanol, 313.15 K) was 0.117 and the solubility (mole fraction) (in n-butanol, 318.15 K) was 0.135. It also gave a solubility (mole fraction) (in n-butanol, 323.15 K) of 0.156, a solubility (mole fraction) (in n-propanol, 278.15 K) of 0.049 and a solubility (mole fraction) (in n-propanol, 283.15 K) of 0.0547. The solubility (mole fraction) (in n-propanol, 288.15 K) was 0.0624, the solubility (mole fraction) (in n-propanol, 293.15 K) was 0.0698 and the solubility (mole fraction) (in n-propanol, 298.15 K) was 0.0784. It also gave a solubility (mole fraction) (in n-propanol, 303.15 K) of 0.0889, a solubility (mole fraction) (in n-propanol, 308.15 K) of 0.101 and a solubility (mole fraction) (in n-propanol, 313.15 K) of 0.115. For the same compound, the solubility (mole fraction) (in n-propanol, 318.15 K) was 0.132 and the solubility (mole fraction) (in n-propanol, 323.15 K) was 0.15.
